Reference: paper PMC6814236, “Monitoring and characterizing soluble and membrane-bound ectonucleotidases CD73 and CD39” (PLoS ONE, 2019)

Target: T1, membrane-associated CD73 of MDA-MB-231 cells (Homo sapiens, UniProt P21589)
T1 construct: cell-based membrane-associated CD73 from MDA-MB-231 following AMP-Glo cell-based assay; endogenous in cells; host or cells: MDA-MB-231
T1 sequence (P21589 27-574): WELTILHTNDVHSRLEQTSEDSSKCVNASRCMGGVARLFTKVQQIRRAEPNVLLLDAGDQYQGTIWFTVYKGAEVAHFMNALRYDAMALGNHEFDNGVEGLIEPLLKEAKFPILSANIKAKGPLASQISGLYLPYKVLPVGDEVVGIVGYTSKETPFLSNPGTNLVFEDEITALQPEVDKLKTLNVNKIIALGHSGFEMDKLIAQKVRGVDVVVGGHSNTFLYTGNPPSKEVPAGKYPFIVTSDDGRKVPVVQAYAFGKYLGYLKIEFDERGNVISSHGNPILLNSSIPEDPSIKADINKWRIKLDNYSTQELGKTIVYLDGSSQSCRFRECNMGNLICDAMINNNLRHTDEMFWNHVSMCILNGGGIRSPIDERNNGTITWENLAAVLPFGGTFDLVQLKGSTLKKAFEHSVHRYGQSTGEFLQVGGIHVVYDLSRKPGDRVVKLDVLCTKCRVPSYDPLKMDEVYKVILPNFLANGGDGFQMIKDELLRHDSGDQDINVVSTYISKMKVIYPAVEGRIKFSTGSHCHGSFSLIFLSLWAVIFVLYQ
Assay: Cell-based membrane-associated CD73 activity (AMP-Glo cell-based assay)
Method: • Adherent Cells preparation and assay protocol. Cells grown in 75cm^2 flasks were trypsinized and counted, and were diluted with full medium, and plated to a tissue culture grade solid white or clear bottom plate, at cell density of 25K cells in full medium (10% FBS and 1% Pen/Strep) per well, and kept overnight at 37°C in a 5% CO2 incubator. Fresh medium was added an hour before use by pipetting out ¾ volume of overnight medium from each well and replaced with a ¾ volume of fresh full growing medium. Cells were washed twice with HBSS by taking out whole medium from each well and replaced with fresh 100μl of HBSS to each well. […]
For CD73 activity using AMP as substrate, 25μl aliquots were withdrawn from each well at the desired time point and added to assay solid white plate (Corning Costar 3912 or equivalent) followed by the addition of 25μl of AMP-Glo™ Reagent I to each well, mixed well and incubated for 30min at 23°C.This was followed by the addition of 50μl per well of AMP-Glo™ Detection Solution (1ml of Kinase-Glo™ One Solution mixed with 10μl of AMP-Glo™ Reagent II), see AMP-Glo™ TM#384. This was followed by incubating the mixture for 60min at 23°C, before reading the plate using a luminometer. […]

SMILES: Nc1ncnc2c1ncn2[C@@H]1O[C@H](COP(=O)(O)CP(=O)(O)O)[C@@H](O)[C@H]1O [AMP-CP, Adenosine 5'-(α, β-methylene) diphosphate]
- inhibition of membrane-associated CD73 activity (50μM inhibitor, 25k MDA-MB-231 cells per well, 10μM AMP, 37°C, time course): inhibited
- IC50 (25K cells per well, 5μM AMP, 90min at 37°C): 2100 nM
